Experimental data taken from patent US11884676B2, “Substituted pyrimido[1,2-b]pyridazines as positive allosteric modulators of the muscarinic acetylcholine receptor M4” (Vanderbilt University, priority 2020, dated 2024).

Target: T1, Human M4 (Homo sapiens, UniProt P08173)
T1 construct: expressed in transfected cells
T1 sequence (P08173 1-479): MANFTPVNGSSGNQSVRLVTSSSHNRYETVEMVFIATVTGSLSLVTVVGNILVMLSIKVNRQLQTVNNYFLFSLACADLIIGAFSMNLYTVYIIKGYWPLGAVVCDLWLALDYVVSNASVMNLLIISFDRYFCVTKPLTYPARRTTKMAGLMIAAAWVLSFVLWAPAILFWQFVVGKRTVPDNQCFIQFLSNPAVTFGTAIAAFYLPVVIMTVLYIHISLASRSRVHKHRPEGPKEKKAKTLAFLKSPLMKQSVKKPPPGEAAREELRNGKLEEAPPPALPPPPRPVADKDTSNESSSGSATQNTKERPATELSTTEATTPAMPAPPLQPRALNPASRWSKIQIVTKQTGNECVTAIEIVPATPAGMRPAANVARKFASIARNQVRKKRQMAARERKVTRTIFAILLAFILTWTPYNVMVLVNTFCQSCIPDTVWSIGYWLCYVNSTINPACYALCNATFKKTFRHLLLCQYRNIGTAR
Experiment: mAChR M4 cell-based functional assay (calcium flux, PAM mode)
Details: hM4-Gqi5 CHO-K1 cells; for Emax at 30 µM: CHO-K1, % ACh maximum at 30 μM; for EC50: concentration-dependent increase in the EC20 acetylcholine response
Experimental: Human and rat M4 cDNAs, along with the chimeric G protein Gqi5, were transfected into Chinese hamster ovary (CHO-K1) cells purchased from the American Type Culture Collection using Lipofectamine2000. hM4-Gqi5 cells were grown in Ham's F-12 medium containing 10% heat-inactivated fetal bovine serum (FBS), 20 mM HEPES, 50 μg/mL G418 sulfate, and 500 μg/mL Hygromycin B. rM4-Gqi5 cells were grown in DMEM containing 10% heat-inactivated FBS, 20 mM HEPES, 400 μg/mL G418 sulfate, and 500 μg/mL Hygromycin B.
For high throughput measurement of agonist-evoked increases in intracellular calcium, CHO-K1 cells stably expressing muscarinic receptors were plated in growth medium lacking G418 and hygromycin at 15,000 cells/20 μL/well in Greiner 384-well black-walled, tissue culture (TC)-treated, clear-bottom plates (VWR). Cells were incubated overnight at 37° C. and 5% CO2. The next day, cells were washed using an ELX 405 (BioTek) with assay buffer; the final volume was then aspirated to 20 μL. Next, 20 μL of a 2.3 μM stock of Fluo-4/acetoxymethyl ester (Invitrogen, Carlsbad, CA), prepared as a 2.3 mM stock in DMSO and mixed in a 1:1 ratio with 10% (w/v) Pluronic F-127 and diluted in assay buffer, was added to the wells and the cell plates were incubated for 50 min at 37° C. and 5% CO2. Dye was removed by washing with the ELX 405 and the final volume was aspirated to 20 μL. Compound master plates were formatted in an 11 point concentration-response curve (CRC) format (1:3 dilutions) in 100% DMSO with a starting concentration of 10 mM using a BRAVO liquid handler (Agilent). Test compound CRCs were then transferred to daughter plates (240 nL) using the Echo acoustic plate reformatter (Labcyte, Sunnyvale, CA) and then diluted into assay buffer (40 μL) to a 2× stock using a Thermo Fisher Combi (Thermo Fisher Scientific, Waltham, MA).
Calcium flux was measured using the Functional Drug Screening System (FDSS) 6000 or 7000 (Hamamatsu Corporation, Tokyo, Japan) as an increase in the fluorescent static ratio. Compounds were applied to cells (20 μL, 2×) using the automated system of the FDSS at 2-4 seconds into the protocol and the data were collected at 1 Hz. At 144 seconds, 10 μL of an EC20 concentration of the muscarinic receptor agonist acetylcholine was added (5×), followed by the addition of 12 μL of an EC80 concentration of acetylcholine at the 230 second time point (5×). Agonist activity was analyzed as a concentration-dependent increase in calcium mobilization upon compound addition. Positive allosteric modulator activity was analyzed as a concentration-dependent increase in the EC20 acetylcholine response. Antagonist activity was analyzed as a concentration-dependent decrease in the EC80 acetylcholine response. Concentration-response curves were generated using a four-parameter logistical equation in XLFit curve fitting software (IDBS, Bridgewater, NJ) for Excel (Microsoft, Redmond, WA) or Prism (GraphPad Software, Inc., San Diego, CA).
Compounds were synthesized as described above. Activity (EC50 and Emax) was determined in the mAChR M4 cell-based functional assay as described above and the data are shown in Table 2. The compound number corresponds to the compound numbers used in Examples 1 to 11 and Tables 1.

| SMILES | Emax at 30 µM [%] | EC50 [nM] | Human M4 Emax (%)* (% ACh maximum at 30 μM) [%] |
| --- | --- | --- | --- |
| [2H]C1([2H])Oc2ccc(OC3CCN(c4nn5c(=O)c(F)c(C)nc5cc4C)CC3)cc2OC1([2H])[2H] [Compound 15, 7-(4-((2,3-Dihydrobenzo[b][1,4]dioxin-6-yl-2,2,3,3-d4)oxy)piperidin-1-yl)-3-fluoro-2,8-dimethyl-4H-pyrimido[1,2-b]pyridazin-4-one] | 80 | 20 | – |
| [2H]C1([2H])Oc2ccc(OC3CCN(c4nn5c(=O)c(F)c(C)nc5c(C)c4C)CC3)cc2OC1([2H])[2H] [Compound 16, 7-(4-((2,3-Dihydrobenzo[b][1,4]dioxin-6-yl-2,2,3,3-d4)oxy)piperidin-1-yl)-3-fluoro-2,8,9-trimethyl-4H-pyrimido[1,2-b]pyridazin-4-one] | 117 | 92 | – |
| [2H]C1([2H])Oc2ccc(OC3CCN(c4nn5c(=O)c(Cl)c(C)nc5cc4C)CC3)cc2OC1([2H])[2H] [Compound 17, 3-Chloro-7-(4-((2,3-dihydrobenzo[b][1,4]dioxin-6-yl-2,2,3,3-d4)oxy)piperidin-1-yl)-2,8-dimethyl-4H-pyrimido[1,2-b]pyridazin-4-one] | 91 | 12 | – |
| [2H]C1([2H])Oc2ccc(OC3CCN(c4nn5c(=O)ccnc5c(C)c4COC)CC3)cc2OC1([2H])[2H] [Compound 18, 7-(4-((2,3-Dihydrobenzo[b][1,4]dioxin-6-yl-2,2,3,3-d4)oxy)piperidin-1-yl)-8-(methoxymethyl)-9-methyl-4H-pyrimido[1,2-b]pyridazin-4-one] | 90 | 162 | – |
| [2H]C1([2H])Oc2ccc(OC3CCN(c4nn5c(=O)ccnc5c(COC)c4C)CC3)cc2OC1([2H])[2H] [Compound 19, 7-(4-((2,3-Dihydrobenzo[b][1,4]dioxin-6-yl-2,2,3,3-d4)oxy)piperidin-1-yl)-9-(methoxymethyl)-8-methyl-4H-pyrimido[1,2-b]pyridazin-4-one] | 75 | 460 | – |
| Cc1c(N2CCC(Oc3ccc4c(c3)OCCO4)CC2)nn2c(=O)ccnc2c1C1CC1 [Compound 20, 9-Cyclopropyl-7-(4-((2,3-dihydrobenzo[b][1,4]dioxin-6-yl-2,2,3,3-d4)oxy)piperidin-1-yl)-8-methyl-4H-pyrimido[1,2-b]pyridazin-4-one] | 81 | 172 | – |
| [2H]C1([2H])Oc2ccc(OC3CCN(c4nn5c(=O)ccnc5c(C)c4C4CC4)CC3)cc2OC1([2H])[2H] [Compound 21, 8-cyclopropyl-7-(4-((2,3-dihydrobenzo[b][1,4]dioxin-6-yl-2,2,3,3-d4)oxy)piperidin-1-yl)-9-methyl-4H-pyrimido[1,2-b]pyridazin-4-one] | – | 2070 | 82 |
| [2H]C1([2H])Oc2ccc(OC3CCN(c4cc(C)c5nccc(=O)n5n4)CC3)cc2OC1([2H])[2H] [Compound 22, 7-(4-((2,3-dihydrobenzo[b][1,4]dioxin-6-yl-2,2,3,3-d4)oxy)piperidin-1-yl)-9-methyl-4H-pyrimido[1,2-b]pyridazin-4-one] | 36 | 1800 | – |
| [2H]C1([2H])Oc2ccc(OC3CCN(c4nn5c(=O)c(Cl)cnc5cc4C)CC3)cc2OC1([2H])[2H] [Compound 23, 3-chloro-7-(4-((2,3-dihydrobenzo[b][1,4]dioxin-6-yl-2,2,3,3-d4)oxy)piperidin-1-yl)-8-methyl-4H-pyrimido[1,2-b]pyridazin-4-one] | 91 | 44 | – |
| Cc1ccc(OC2CCN(c3nn4c(=O)ccnc4cc3C)CC2)cn1 [Compound 24, 8-methyl-7-(4-((6-methylpyridin-3-yl)oxy)piperidin-1-yl)-4H-pyrimido[1,2-b]pyridazin-4-one] | 73 | 782 | – |
| Cc1cc2nccc(=O)n2nc1N1CCC(Oc2ccc(F)cc2)CC1 [Compound 25, 7-(4-(4-fluorophenoxy)piperidin-1-yl)-8-methyl-4H-pyrimido[1,2-b]pyridazin-4-one] | 90 | 296 | – |
| Cc1cc2nccc(=O)n2nc1N1CCC(Oc2ccc3c(c2)OCCO3)CC1 [Compound 26, 7-(4-((2,3-dihydrobenzo[b][1,4]dioxin-6-yl)oxy)piperidin-1-yl)-8-methyl-4H-pyrimido[1,2-b]pyridazin-4-one] | 84 | 66 | – |
| [2H]C1([2H])Oc2cc(OC3CCN(c4nn5c(=O)c(Cl)cnc5cc4C)CC3)cc(C)c2OC1([2H])[2H] [Compound 27, 3-chloro-8-methyl-7-(4-((8-methyl-2,3-dihydrobenzo[b][1,4]dioxin-6-yl-2,2,3,3-d4)oxy)piperidin-1-yl)-4H-pyrimido[1,2-b]pyridazin-4-one] | 79 | 108 | – |
| [2H]C1([2H])Oc2cc(OC3CCN(c4nn5c(=O)ccnc5cc4C)CC3)cc(C)c2OC1([2H])[2H] [Compound 28, 8-methyl-7-(4-((8-methyl-2,3-dihydrobenzo[b][1,4]dioxin-6-yl-2,2,3,3-d4)oxy)piperidin-1-yl)-4H-pyrimido[1,2-b]pyridazin-4-one] | 93 | 288 | – |
| [2H]C1([2H])Oc2ccc(OC3CCN(c4nn5c(=O)c(C)cnc5cc4C)CC3)cc2OC1([2H])[2H] [Compound 29, 7-(4-((2,3-dihydrobenzo[b][1,4]dioxin-6-yl-2,2,3,3-d4)oxy)piperidin-1-yl)-3,8-dimethyl-4H-pyrimido[1,2-b]pyridazin-4-one] | 80 | 43 | – |
| [2H]C1([2H])Oc2ccc(OC3CCN(c4nn5c(=O)c(C6CC6)cnc5cc4C)CC3)cc2OC1([2H])[2H] [Compound 30, 3-cyclopropyl-7-(4-((2,3-dihydrobenzo[b][1,4]dioxin-6-yl-2,2,3,3-d4)oxy)piperidin-1-yl)-8-methyl-4H-pyrimido[1,2-b]pyridazin-4-one] | 80 | 73 | – |
| Cc1cc2ncc(Cl)c(=O)n2nc1N1CCC(Oc2ccc3c(c2)OCCO3)CC1 [Compound 31, 3-chloro-7-(4-((2,3-dihydrobenzo[b][1,4]dioxin-6-yl)oxy)piperidin-1-yl)-8-methyl-4H-pyrimido[1,2-b]pyridazin-4-one] | 82 | 32 | – |
| Cc1cc2nccc(=O)n2nc1N1CC[C@@H](Oc2ccc3c(c2)OCCO3)[C@H](F)C1 [Compound 32, 7-((3R,4R)-4-((2,3-dihydrobenzo[b][1,4]dioxin-6-yl)oxy)-3-fluoropiperidin-1-yl)-8-methyl-4H-pyrimido[1,2-b]pyridazin-4-one] | 81 | 147 | – |
| Cc1cc(=O)n2nc(N3CC[C@@H](Oc4ccc5c(c4)OCCO5)[C@@H](F)C3)c(C)cc2n1 [Compound 33, 7-((3S,4R)-4-((2,3-dihydrobenzo[b][1,4]dioxin-6-yl)oxy)-3-fluoropiperidin-1-yl)-2,8-dimethyl-4H-pyrimido[1,2-b]pyridazin-4-one] | 117 | 40 | – |
| Cc1cc2nccc(=O)n2nc1N1CC[C@@H](Oc2ccc3c(c2)OCCO3)[C@@H](F)C1 [Compound 34, 7-((3S,4R)-4-((2,3-dihydrobenzo[b][1,4]dioxin-6-yl)oxy)-3-fluoropiperidin-1-yl)-8-methyl-4H-pyrimido[1,2-b]pyridazin-4-one] | 116 | 70 | – |
